Publication PMC8398983, “Triarylborane Dyes as a Novel Non-Covalent and Non-Inhibitive Fluorimetric Markers for DPP III Enzyme” (Molecules, 2021)
Substitutions are numbered along the chain they refer to.

How the values were obtained:
Test in all cases: fluorimetric titration, […] fit
Assay type in all cases: binding
hDPP III [1] = molecular target: T1, hDPP III (Homo sapiens, UniProt Q9NY33, E451A); settings: read-out: logKs (converted)
T1 construct: gene DPP3; recombinant, C-terminal His-tag, expressed in E. coli from pET21b, Ni-NTA purified
T1 sequence (Q9NY33 2-737 E451A): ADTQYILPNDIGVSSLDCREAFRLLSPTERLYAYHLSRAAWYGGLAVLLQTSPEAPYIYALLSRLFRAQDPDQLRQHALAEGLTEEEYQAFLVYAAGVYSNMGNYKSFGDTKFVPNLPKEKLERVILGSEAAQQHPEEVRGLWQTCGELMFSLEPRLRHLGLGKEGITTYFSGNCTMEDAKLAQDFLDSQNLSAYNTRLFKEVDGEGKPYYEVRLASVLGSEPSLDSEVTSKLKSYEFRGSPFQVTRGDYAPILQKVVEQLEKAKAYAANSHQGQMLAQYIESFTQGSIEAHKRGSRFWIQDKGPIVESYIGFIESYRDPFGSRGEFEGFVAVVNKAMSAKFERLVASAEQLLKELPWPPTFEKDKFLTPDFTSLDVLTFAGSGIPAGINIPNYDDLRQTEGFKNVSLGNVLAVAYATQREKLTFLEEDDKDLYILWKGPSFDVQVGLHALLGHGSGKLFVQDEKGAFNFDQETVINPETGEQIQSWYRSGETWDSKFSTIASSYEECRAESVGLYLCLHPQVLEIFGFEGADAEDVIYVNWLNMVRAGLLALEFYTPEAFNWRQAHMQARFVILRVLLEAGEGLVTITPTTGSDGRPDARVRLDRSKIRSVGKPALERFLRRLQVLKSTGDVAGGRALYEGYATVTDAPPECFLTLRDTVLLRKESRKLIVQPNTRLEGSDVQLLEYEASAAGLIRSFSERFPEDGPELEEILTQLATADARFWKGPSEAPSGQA

hDPP III [2] = molecular target: T2, hDPP III (Homo sapiens, UniProt Q9NY33); settings: TRIS-HCl buffer I = 0.02 M, pH 7.4
T2 construct: gene DPP3; recombinant, C-terminal His-tag, expressed in E. coli from pET21b, Ni-NTA purified
T2 sequence (Q9NY33 2-737): T1 sequence (Q9NY33 2-737 E451A) with A450E

[3] = molecular target: T3, BSA (bovine serum albumin) (Bos taurus, UniProt P02769); settings: read-out: logKs (converted)
T3 construct: gene ALB; commercial native protein (Sigma Aldrich), mature serum albumin
T3 sequence (P02769 25-607): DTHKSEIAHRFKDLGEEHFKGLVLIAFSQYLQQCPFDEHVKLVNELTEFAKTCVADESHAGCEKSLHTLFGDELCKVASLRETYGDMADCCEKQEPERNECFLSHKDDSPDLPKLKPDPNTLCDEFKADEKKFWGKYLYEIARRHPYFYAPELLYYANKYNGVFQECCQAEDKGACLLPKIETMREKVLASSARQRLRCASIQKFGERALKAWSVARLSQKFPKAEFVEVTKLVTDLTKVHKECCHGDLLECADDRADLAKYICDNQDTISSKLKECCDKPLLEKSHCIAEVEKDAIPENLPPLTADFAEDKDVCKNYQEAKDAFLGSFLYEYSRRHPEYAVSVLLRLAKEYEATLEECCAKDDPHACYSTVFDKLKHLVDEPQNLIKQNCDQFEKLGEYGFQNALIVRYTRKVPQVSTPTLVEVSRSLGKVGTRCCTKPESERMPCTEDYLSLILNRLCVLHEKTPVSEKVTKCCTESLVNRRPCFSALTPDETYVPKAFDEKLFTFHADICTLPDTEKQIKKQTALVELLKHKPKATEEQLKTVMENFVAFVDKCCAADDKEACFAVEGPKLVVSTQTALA

## Cc1cc(-c2cn(C(CCCCN)C(=O)O)nn2)cc(C)c1B(c1c(C)cc(N(C)C)cc1C)c1c(C)cc(N(C)C)cc1C (stereo not drawn) [compound 1, Triaryl-borane-amino acid conjugate 1]
hDPP III [1]
  Kd: 251 nM
hDPP III [2]; λexc 400 nm
  logKs: performed fluorimetric titrations with wild type (wt) hDPP III
[3]
  Kd: 501 nM

## Cc1cc(-c2cn(C(CCCCNC(=O)CCCc3ccc4ccc5cccc6ccc3c4c56)C(=O)O)nn2)cc(C)c1B(c1c(C)cc(N(C)C)cc1C)c1c(C)cc(N(C)C)cc1C (stereo not drawn) [compound 2, Triaryl-borane-amino acid-pyrene conjugate 2]
hDPP III [1]
  Kd: 398 nM
hDPP III [2]; λexc 342 and 403 nm
  logKs: performed fluorimetric titrations with wild type (wt) hDPP III
[3]
  Kd: 398 nM
